Patent US7208500B2, “Thienopyridine-phenylacetamides and their derivatives useful as new anti-angiogenic agents” (Agouron Pharmaceuticals, Inc., priority 2003, dated 2007)
pKi: −log10 of the molar value.

How the values were obtained:
[1] = biological target: T1, unphosphorylated VEGF-R2D50 (FLVK), cytosolic domain of human VEGF-R2 (Homo sapiens, UniProt P35968, DEL940-989/E990V); assay: VEGF-R2 coupled spectrophotometric assay (FLVK); assay type: biochemical
T1 construct: VEGF-R2D50 contains residues 806–939 and 990–1171; made in house; host or cells: baculovirus/insect cell system
T1 sequence (P35968 with tags, fused parts or gaps DEL940-989/E990V limits assumed): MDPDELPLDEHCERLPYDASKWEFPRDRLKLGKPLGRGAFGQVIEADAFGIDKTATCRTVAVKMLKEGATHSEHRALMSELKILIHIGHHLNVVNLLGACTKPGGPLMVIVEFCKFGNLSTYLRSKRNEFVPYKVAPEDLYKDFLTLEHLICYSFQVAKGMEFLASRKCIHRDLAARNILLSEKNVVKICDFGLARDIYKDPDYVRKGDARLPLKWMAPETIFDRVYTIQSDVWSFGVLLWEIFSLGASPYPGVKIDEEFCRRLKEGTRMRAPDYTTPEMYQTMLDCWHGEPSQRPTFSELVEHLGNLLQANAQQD
Excerpt: This construct determines the ability of a test compound to inhibit tyrosine kinase activity. A construct (VEGF-R2D50) of the cytosolic domain of human vascular endothelial growth factor receptor 2 (VEGF-R2) lacking the 50 central residues of the 68 residues of the kinase insert domain was expressed in a baculovirus/insect cell system. Of the 1356 residues of full-length VEGF-R2, VEGF-R2D50 contains residues 806–939 and 990–1171, and also one point mutation (E990V) within the kinase insert domain relative to wild-type VEGF-R2. Autophosphorylation of the purified construct was performed by incubation of the enzyme at a concentration of […] in the presence of 3 mM ATP and 40 mM MgCl2 in 100 mM HEPES, pH 7.5, containing 5% glycerol and 5 mM DTT, at 4° C. for 2 h. […] See Parast et al., Biochemistry, 37, 16788–16801 (1998).
The production of ADP from ATP that accompanies phosphoryl transfer was coupled to oxidation of NADH using phosphoenolpyruvate (PEP) and a system having pyruvate kinase (PK) and lactic dehydrogenase (LDH). The oxidation of NADH was monitored by following the decrease of absorbance at 340 nm (e340=6.22 cm^−1 mM^−1) using a Beckman DU 650 spectrophotometer. Assay conditions for phosphorylated VEGF-R2D50 (indicated as FLVK-P in the tables below) were the following: 1 mM PEP; […]; 50 units of LDH/mL; 20 units of PK/mL; 5 mM DTT; 5.1 mM poly(E4Y1); 1 mM ATP; and 25 mM MgCl2 in 200 mM HEPES, pH 7.5. Assay conditions for unphosphorylated VEGF-R2D50 (indicated as FLVK in the tables) were the following: 1 mM PEP; […]; 50 units of LDH/mL; 20 units of PK/mL; 5 mM DTT; 20 mM poly(E4Y1); 3 mM ATP; and 60 mM MgCl2 and 2 mM MnCl2 in 200 mM HEPES, pH 7.5. Assays were initiated with 5 to 40 nM of enzyme. Ki values were determined by measuring enzyme activity in the presence of varying concentrations of test compounds. The percent inhibition at 50 nm (% inhibition@50 nm) was determined by linear least-squares regression analysis of absorpbance as a function of time. The binding inhibitions were fitted to equation as described by Morrison. The data were analyzed using Enzyme Kinetic and Kaleidagraph software.

[2] = biological target: T2, FGF-R1 intracellular kinase domain (Homo sapiens, UniProt P11362, C488A/C584S/L457V); assay: FGF-R spectrophotometric assay; assay type: biochemical; settings: 50 nM test compound; read-out: FGF-P (% inh @ 50 nM)
T2 construct: starting from the endogenous methionine residue 456 to glutamate 766; made in house; host or cells: baculovirus vector expression system
T2 sequence (P11362 456-766 L457V/C488A/C584S): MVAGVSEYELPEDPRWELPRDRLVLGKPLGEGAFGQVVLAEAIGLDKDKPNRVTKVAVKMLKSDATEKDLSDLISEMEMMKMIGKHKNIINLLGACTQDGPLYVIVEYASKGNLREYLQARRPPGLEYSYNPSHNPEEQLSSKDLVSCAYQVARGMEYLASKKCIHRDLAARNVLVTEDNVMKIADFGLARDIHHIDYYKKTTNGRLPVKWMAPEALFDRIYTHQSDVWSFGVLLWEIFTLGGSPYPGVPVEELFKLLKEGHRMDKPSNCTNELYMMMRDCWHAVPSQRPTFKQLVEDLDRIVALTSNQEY
Procedure: The intracellular kinase domain of human FGF-R1 was expressed using the baculovirus vector expression system starting from the endogenous methionine residue 456 to glutamate 766, according to the residue numbering system of Mohammadi et al., Mol. Cell. Biol., 16, 977–989 (1996). In addition, the construct also has the following 3 amino acid substitutions: L457V, C488A, and C584S.
The spectrophotometric assay was carried out as described above for VEGF-R2, except for the following changes in concentration: FGF-R=50 nM, ATP=2 mM, and poly(E4Y1)=15 mM.

| SMILES | pKi [1] | inhibition at 0.05 µM [2] [%] |
| --- | --- | --- |
| Cc1cc(C)nc(NC(=O)Cc2ccc(Oc3ccnc4cc(-c5nccn5C)sc34)c(F)c2)c1 [Example 1, N-(4,6-Dimethyl-pyridin-2-yl)-2-{3-fluoro-4-[2-(1-methyl-1H-imidazol-2-yl)-thieno[3,2-b]pyridin-7-yloxy]-phenyl}-acetamide] | > 9.00 | 0 to 5 |
| CNC(=O)Cc1ccc(Oc2ccnc3cc(C(=O)N4CC[C@@H](O)C4)sc23)c(F)c1 [Example 2, 2-{3-Fluoro-4-[2-((R)-3-hydroxy-pyrrolidine-1-carbonyl)-thieno[3,2-b]pyridin-7-yloxy]-phenyl}-N-methyl-acetamide] | < 8.00 | 0 to 5 |
| Cc1cc(C)nc(NC(=O)Cc2ccc(Oc3ccnc4cc(C(=O)N(C)CCCN(C)C)sc34)cc2)c1 [Example 5, 7-{4-[(4,6-Dimethyl-pyridin-2-ylcarbamoyl)-methyl]-phenoxy}-thieno[3,2-b]pyridine-2-carboxylic acid (3-dimethylamino-propyl)-methyl-amide] | – | 0 to 5 |
| Cc1cccnc1NC(=O)Cc1ccc(Oc2ccnc3cc(C(=O)N4CCC4)sc23)cc1 [Example 26, 2-{4-[2-(Azetidine-1-carbonyl)-thieno[3,2-b]pyridin-7-yloxy]-phenyl}-N-(3-methyl-pyridin-2-yl)-acetamide] | < 8.00 | – |
| O=C(Cc1ccc(Oc2ccnc3cc(C(=O)N4CCC4)sc23)cc1)Nc1ccncc1 [Example 35, 2-{4-[2-(Azetidine-1-carbonyl)-thieno[3,2-b]pyridin-7-yloxy]-phenyl}-N-pyridin-4-yl-acetamide] | < 8.00 | 0 to 5 |
| Cc1cc(NC(=O)Cc2ccc(Oc3ccnc4cc(C(=O)N5CCC5)sc34)cc2)n[nH]1 [Example 39, 2-{4-[2-(Azetidine-1-carbonyl)-thieno[3,2-b]pyridin-7-yloxy]-phenyl}-N-(5-methyl-1H-pyrazol-3-yl)-acetamide] | – | 0 to 5 |
| O=C(Cc1ccc(Oc2ccnc3cc(C(=O)N4CCC4)sc23)cc1)Nc1cc[nH]n1 [Example 40, 2-{4-[2-(Azetidine-1-carbonyl)-thieno[3,2-b]pyridin-7-yloxy]-phenyl}-N-(1H-pyrazol-3-yl)-acetamide] | < 8.00 | 0 to 5 |
| O=C(Cc1ccc(Oc2ccnc3cc(C(=O)N4CCC4)sc23)cc1)Nc1ccon1 [Example 42, 2-{4-[2-(Azetidine-1-carbonyl)-thieno[3,2-b]pyridin-7-yloxy]-phenyl}-N-isoxazol-3-yl-acetamide] | < 8.00 | 0 to 5 |
| Cc1coc(NC(=O)Cc2ccc(Oc3ccnc4cc(C(=O)N5CCC5)sc34)cc2Cl)n1 [Example 54, 2-{4-[2-(Azetidine-1-carbonyl)-thieno[3,2-b]pyridin-7-yloxy]-2-chloro-phenyl}-N-(4-methyl-oxazol-2-yl)-acetamide] | < 8.00 | 0 to 5 |
| O=C(Cc1ccc(Oc2ccnc3cc(C(=O)N4CCC4)sc23)cc1Cl)NCCCN1CCOCC1 [Example 57, 2-{4-[2-(Azetidine-1-carbonyl)-thieno[3,2-b]pyridin-7-yloxy]-2-chloro-phenyl}-N-(3-morpholin-4-yl-propyl)-acetamide] | < 8.00 | 0 to 5 |
| Cc1ccc(CNC(=O)Cc2ccc(Oc3ccnc4cc(-c5nccn5C)sc34)cc2Cl)o1 [Example 58, 2-{2-Chloro-4-[2-(1-methyl-1H-imidazol-2-yl)-thieno[3,2-b]pyridin-7-yloxy]-phenyl}-N-(5-methyl-furan-2-ylmethyl)-acetamide] | < 8.00 | 0 to 5 |
| Cn1ccnc1-c1cc2nccc(Oc3ccc(CC(=O)NCc4cccc(F)c4)c(Cl)c3)c2s1 [Example 59, 2-{2-Chloro-4-[2-(1-methyl-1H-imidazol-2-yl)-thieno[3,2-b]pyridin-7-yloxy]-phenyl}-N-(3-fluoro-benzyl)-acetamide] | < 8.00 | 0 to 5 |
| CNC(=O)Cc1ccc(Oc2ccnc3cc(C(=O)N4CCC4)sc23)cc1Cl [Example 63, 2-{4-[2-(Azetidine-1-carbonyl)-thieno[3,2-b]pyridin-7-yloxy]-2-chloro-phenyl}-N-methyl-acetamide] | < 8.00 | 0 to 5 |
| CNC(=O)Cc1ccc(Oc2ccnc3cc(C(=O)N4CC[C@@H](O)C4)sc23)cc1Cl [Example 64, 2-{2-Chloro-4-[2-((R)-3-hydroxy-pyrrolidine-1-carbonyl)-thieno[3,2-b]pyridin-7-yloxy]-phenyl}-N-methyl-acetamide] | < 8.00 | 0 to 5 |
| CNC(=O)Cc1ccc(Oc2ccnc3cc(-c4nccn4C)sc23)cc1Cl [Example 65, 2-{2-Chloro-4-[2-(1-methyl-1H-imidazol-2-yl)-thieno[3,2-b]pyridin-7-yloxy]-phenyl}-N-methyl-acetamide] | < 8.00 | 0 to 5 |
| CNC(=O)C1(c2ccc(Oc3ccnc4cc(C(=O)N5CC[C@@H](O)C5)sc34)cc2)CC1 [Example 67, 1-{4-[2-((R)-3-Hydroxy-pyrrolidine-1-carbonyl)-thieno[3,2-b]pyridin-7-yloxy]-phenyl}-cyclopropanecarboxylic acid methylamide] | < 8.00 | 0 to 5 |
| CNC(=O)Cc1ccc(Oc2ccnc3cc(C(=O)N4CC[C@H](OC)C4)sc23)cc1 [Example 68, 2-{4-[2-((S)-3-Methoxy-pyrrolidine-1-carbonyl)-thieno[3,2-b]pyridin-7-yloxy]-phenyl}-N-methyl-acetamide] | < 8.00 | 0 to 5 |
| CNC(=O)C(OC)c1ccc(Oc2ccnc3cc(C(=O)N4CC[C@@H](O)C4)sc23)cc1Cl (stereo partly drawn) [Example 70, 2-{2-Chloro-4-[2-((R)-3-hydroxy-pyrrolidine-1-carbonyl)-thieno[3,2-b]pyridin-7-yloxy]-phenyl}-2-methoxy-N-methyl-acetamide] | < 8.00 | 5 to 10 |
| CNC(=O)C(O)c1ccc(Oc2ccnc3cc(C(=O)N4CC[C@@H](O)C4)sc23)cc1Cl (stereo partly drawn) [Example 71, 2-{2-Chloro-4-[2-((R)-3-hydroxy-pyrrolidine-1-carbonyl)-thieno[3,2-b]pyridin-7-yloxy]-phenyl}-2-hydroxy-N-methyl-acetamide] | < 8.00 | 0 to 5 |
| CNC(=O)C(OC)c1ccc(Oc2ccnc3cc(-c4nccn4C)sc23)cc1Cl (stereo not shown) [Example 72, 2-{2-Chloro-4-[2-(1-methyl-1H-imidazol-2-yl)-thieno[3,2-b]pyridin-7-yloxy]-phenyl}-2-methoxy-N-methyl-acetamide] | – | 0 to 5 |
| CNC(=O)C(O)c1ccc(Oc2ccnc3cc(-c4nccn4C)sc23)cc1Cl (stereo not shown) [Example 73, 2-{2-Chloro-4-[2-(1-methyl-1H-imidazol-2-yl)-thieno[3,2-b]pyridin-7-yloxy]-phenyl}-2-hydroxy-N-methyl-acetamide] | – | 0 to 5 |
| CNC(=O)C(O)c1ccc(Oc2ccnc3cc(-c4nc(C(C)(C)O)cs4)sc23)cc1 (stereo not shown) [Example 75, 2-Hydroxy-2-(4-{2-[4-(1-hydroxy-1-methyl-ethyl)-thiazol-2-yl]-thieno[3,2-b]pyridin-7-yloxy}-phenyl)-N-methyl-acetamide] | < 8.00 | 0 to 5 |
| CNC(=O)C(O)c1ccc(Oc2ccnc3cc(C(=O)N4CC[C@@H](OC)C4)sc23)cc1 (stereo partly drawn) [Example 77, 2-Hydroxy-2-{4-[2-((R)-3-methoxy-pyrrolidine-1-carbonyl)-thieno[3,2-b]pyridin-7-yloxy]-phenyl}-N-methyl-acetamide] | < 8.00 | 0 to 5 |
| CNC(=O)C(=O)c1ccc(Oc2ccnc3cc(C(=O)N4CC[C@@H](OC)C4)sc23)cc1 [Example 78, 2-{4-[2-((R)-3-Methoxy-pyrrolidine-1-carbonyl)-thieno[3,2-b]pyridin-7-yloxy]-phenyl}-N-methyl-2-oxo-acetamide] | < 8.00 | > 10 |
